Measured values taken from patent publication US20090311214A1, “COMPOSITIONS AND METHODS FOR THE INNATE IMMUNE RESPONSE PATHWAY” (UNIVERSITY OF MARYLAND, BALTIMORE, priority 2008, published 2009).
Entries after “also recorded” stand apart in the source; their conditions may differ.

Legend:
Assay type in all cases: cell-based, human
monocytes [1] = experiment: Purified monocytes pretreated with IL-1ra before PTG or β-glucan
Protocol: To better understand the contribution of IL-1 signaling in the IL-23/TH17 innate response to PTG in monocyte and immDC populations, we pretreated monocytes, immDC and IFNγ-treated immDC with the naturally occurring anti-inflammatory IL-1 receptor antagonist (IL-1ra) for 1 h prior to stimulation with PTG or β-glucan as a positive control, or incubated with increasing doses of exogenous IL-1β for 20 h. […] Contradictory to the monocyte response, addition of IL-1ra or IL-1β to IFNγ-treated immDC had no effect on the IL-23/TH17 profile induced by PTG exposure (FIG. 3D), providing further indication that monocytes exposed to gluten and not their progeny DC have the potential to activate autoreactive memory TH17 cells. Indeed, other groups have reported in human studies that activated monocytes, which produce IL-1β and IL-23, are the best inducers of TH17 cells (Evans et al., Proc. Natl. Acad. Sci., U.S.A., 104(43):17034-17039 (2007)).
Elutriated monocyte cultures. 5×10^5 monocytes/ml were cultured in cRPMI with and without 100 μg/ml PTG, 100 μg/ml β-glucan, or 0.5-50 ng/ml rhIL-1β in 96 well U-bottom plates at 37° C. in 5% CO2 for 20 h. Alternatively, 5×10^5 monocytes/ml were incubated with 0.5 μg/ml rhIL-1ra at 37° C. in 5% CO2 for 1 h then cultured with and without 100 μg/ml PTG or β-glucan for an additional 20 h. Cell-free culture supernatants were harvested for cytokine and chemokine analysis.
(§1) Cytokine & chemokine analysis. Cell-free culture supernatants were analyzed for IL-1β, IL-1ra, IL-6, IL-12p70, IFNγ, TNFα (Bio-Plex Cytokine Assay kit, Bio-Rad) or IL-1β, IL-23 (ELISA kit, eBiosciences), IL-1ra and CCL20 (Quantikine ELISA kit, R & D Systems) following the manufacturers' protocols. Appropriate standard curves were included in each assay.

IFNγ-treated immDC = IFNγ-treated immDC exposed to PTG with or without IL-1ra or IL-1β; conditions: addition to IFNγ-treated immDC
Protocol: IL-23 is only secreted by activated APC such as monocytes, macrophages and DC, which reduces the number of possible cell sources considerably. To determine which of these cell populations was the source of IL-23 in response to PTG, purified lymphocytes, monocytes, or monocyte-derived DC cultured with GM-CSF and IL-4, were incubated in the presence or absence of PTG for 24 h, at which time supernatants were collected for IL-23, IL-1β, IL-6, IFNγ and TNFα analysis. […] Since neither PTG nor β-glucan activated cytokine production in DC differed from monocytes, we examined the response after pretreatment with IFNγ, given that this treatment has been necessary for the IL-23 response to a variety of agents including β-glucan. immDC were cultured in the presence or absence of IFNγ for 18 h prior to addition of PTG, after which supernatants were subjected to cytokine analysis as described above. […] Moreover, these findings provide insight to the mechanisms in which IFNγ counteracts IL-1 dependent TH17 responses. […]

PBMC [2] = experiment: PBMC pretreated with IL-1ra before stimulation with PTG or β-glucan
Protocol: Considering the essential role for IL-1β in the IL-23/TH17 innate response in purified monocytes, we predicted that IL-1β regulates the cytokine profile triggered by PTG and β-glucan in whole PBMC as well. To this end, PBMC were pretreated with IL-1ra for 1 h prior to stimulation with PTG or β-glucan, or incubated with 5 ng/ml IL-1β alone for 20 h.
(§2) PBMC cultures. PBMC from CD patients and HLA-DQ2^+ healthy controls was tested as follows. 10^6 PBMC/ml were incubated in RPMI-1640 supplemented with 10% heat inactivated hAB, 1% L-glutamine, 1% Pen-Strep and 20 mM Hepes Buffer (cRPMI) with and without PTG, β-glucan, 5 ng/ml rhIL-1β, or 10 μg/ml pooled synthetic 20 mers of α-gliadin in 96 well U-bottom plates (Denville Scientific Inc.) at 37° C. in 5% CO2 for 6, 24, 48, or 72 h. Alternatively, 10^6 PBMC/ml were incubated with 0.5 μg/ml rhIL-1ra at 37° C. in 5% CO2 for 1 h then cultured with and without 100 μg/ml PTG or 500 μg/ml β-glucan for an additional 20 h. Cell-free culture supernatants were harvested for cytokine and chemokine analysis.
as §1

PBMC [3] = experiment: PBMC cultures with PTG, β-glucan, IL-1β or α-gliadin peptides; cytokine/chemokine analysis of supernatants
Protocol: We cultured PBMC from HLA-DQ2 positive and HLA-DQ2 negative healthy persons in the presence or absence of 100 ug/ml of PTG or β-D-glucan from barley as a positive control for 20 h. Cell-free culture supernatants were harvested and analyzed for proinflammatory cytokines IL-1β, IL-6, IFNγ, TNFα (Luminex) IL-23 and the TH17 chemokine CCL20/MIP-3α (ELISA).
as §2, §1

monocytes [4] = experiment: Purified lymphocytes, monocytes or monocyte-derived DC with PTG, β-glucan or IL-1β
Protocol: IL-23 is only secreted by activated APC such as monocytes, macrophages and DC, which reduces the number of possible cell sources considerably. To determine which of these cell populations was the source of IL-23 in response to PTG, purified lymphocytes, monocytes, or monocyte-derived DC cultured with GM-CSF and IL-4, were incubated in the presence or absence of PTG for 24 h, at which time supernatants were collected for IL-23, IL-1β, IL-6, IFNγ and TNFα analysis. […] Since neither PTG nor β-glucan activated cytokine production in DC differed from monocytes, we examined the response after pretreatment with IFNγ, given that this treatment has been necessary for the IL-23 response to a variety of agents including β-glucan. immDC were cultured in the presence or absence of IFNγ for 18 h prior to addition of PTG, after which supernatants were subjected to cytokine analysis as described above. […] Moreover, these findings provide insight to the mechanisms in which IFNγ counteracts IL-1 dependent TH17 responses.
While IL-1β is produced by many cell types, IL-23 production is thought to be restricted to activated APC. […] To investigate this hypothesis, we exposed purified lymphocytes, monocytes, or monocyte-derived DC (cultured with GM-CSF and IL-4 for 72 h) to PTG overnight and analyzed the cell-free culture supernatants for IL-23 and related “Th17” polarizing mediators.
Elutriated monocyte cultures. 5×10^5 monocytes/ml were cultured in cRPMI with and without 100 μg/ml PTG, 100 μg/ml β-glucan, or 0.5-50 ng/ml rhIL-1β in 96 well U-bottom plates at 37° C. in 5% CO2 for 20 h. Alternatively, 5×10^5 monocytes/ml were incubated with 0.5 μg/ml rhIL-1ra at 37° C. in 5% CO2 for 1 h then cultured with and without 100 μg/ml PTG or β-glucan for an additional 20 h. […]
Cytokine & chemokine analysis. Cell-free culture supernatants were analyzed for IL-1β, IL-1ra, IL-6, IL-12p70, IFNγ, TNFα (Bio-Plex Cytokine Assay kit, Bio-Rad) or IL-1β, IL-23 (ELISA kit, eBiosciences), IL-1ra and CCL20 (Quantikine ELISA kit, R & D Systems) following the manufacturers' protocols. […]

[5] = monocytes, IL-1ra 1 h prior to stimulation
[6] = PBMC, 5 ng/ml IL-1β alone, 20 h

Substance | IL-23, TNFα, IL-6 and CCL20 responses to PTG (monocytes [1]; [5]) | cytokine response to β-glucan (monocytes [1]; [5]) | IL-23 responses to PTG and β-glucan (monocytes [1]; purified monocytes, 0.5 μg/ml IL-1ra, 20 h) | IL-1β and IL-23 responses generated by monocytes exposed to gliadin (monocytes [1]; summary statement) | effect on the IL-23/TH17 profile induced by PTG exposure (IFNγ-treated immDC) | IL-23 and IL-1β responses to PTG and β-glucan (PBMC [2]; 0.5 μg/ml IL-1ra 1 h prior, stimulation 20 h, mean of 10 experiments) | induction of IL-23 in response to PTG and β-glucan (PBMC [2]; PBMC from CD patients) | levels of IL-1β in PBMC treated with PTG or β-glucan (PBMC [2]; PBMC from CD patients) | IL-23, TNF-α, IL-6 and CCL20 responses to PTG and β-glucan (PBMC [2]; PBMC from healthy individuals, IL-1ra 1 h prior to stimulation, 20 h) | reduction of the IL-1β response (PBMC [2]; PBMC, IL-1ra 1 h prior to PTG or β-glucan, 20 h) [%] | CCL20 and IL-6 produced compared with PTG (PBMC [3]; [6]) | IL-23 and TNFα produced compared with PTG (PBMC [3]; [6]) | capacity to stimulate IL-23 production, lower than that of PTG or β-glucan (PBMC [3]; PBMC, 5 ng/ml IL-1β, 20 h, mean of 10 experiments) [fold] | IL-23 production by IL-1β alone relative to PTG and β-glucan (PBMC [3]; PBMC, physiologic concentrations of exogenous IL-1β) | IL-23 response of monocytes to exogenous IL-1β (monocytes [4]; 0.5, 5 or 50 ng/ml rhIL-1β, 20 h) | capacity to activate IL-23 secretion, reduced compared to PTG or β-glucan (monocytes [4]; purified monocytes, 20 h, means of 5 experiments) [fold] | dose dependence of IL-1β and IL-23 production (PBMC [3]; PBMC from CD patients, 25-500 μg/ml, 24 h) | IL-23 response in HLA-DQ2+ compared to HLA-DQ2 negative healthy individuals (PBMC [3]; PBMC, 24 h) | concentration at which detectable levels of IL-23 were achieved (PBMC [3]; dose response curves, PBMC from CD patients, 24 h) [µg/mL] | cell source of IL-23, IL-1β, CCL20, TNFα and IL-6 secretion (monocytes [4]; purified lymphocytes, monocytes, monocyte-derived DC, 100 μg/ml PTG, 24 h)
IL-1ra: naturally occurring anti-inflammatory IL-1 receptor antagonist; recombinant human, purchased from R & D Systems | drastically inhibited | inhibited | significantly inhibited; also recorded: blocks | substantially inhibits | had no effect | significantly inhibits | completely inhibited | markedly reduced | inhibits; also recorded: almost completely inhibited | ~60 |  |  |  |  |  |  |  |  |  | 
IL-1β: recombinant human IL-1β purchased from R & D Systems |  |  |  |  | had no effect |  |  |  |  |  | equivalent concentrations | reduced levels | ~10 | much lower levels | dose dependent manner | ~10 |  |  |  | 
β-D-glucan [β-glucan, reference compound] |  |  |  |  |  |  |  |  |  |  |  |  |  |  |  |  | dose-dependent production | substantially more IL-23; also recorded: more pronounced effect | 500 | confined to monocytes
